Where two headings read alike, the source gives them in different places.
Assays:
HSA = conditions: cited from earlier work
[1] = tested on: HIV-1 AD8 (CCR5-tropic strain); test: Antiviral activity on TZM-bl cells infected with HIV-1 AD8 (CPRG assay); type: cell-based; conditions: for alteration of antiviral activity when pre-incubated with serum: HIV-1 laboratory strains
Protocol: (§1) The human TZM-bl indicator cell line (obtained from the NIH AIDS reagents program, cat. Nr 8129 (www.aidsreagent.org) and maintained at 37°C and 5% CO2 in Dulbecco’s modified Eagle’s medium (DMEM) medium containing 10% fetal bovine serum, 50 μg/mL penicillin, and 50 μg/mL streptomycin. The HIV-1 laboratory strains NL(AD8) (NIH AIDS reagents program, cat.nr 11346), NL4.3 (NIH AIDS reagents program, cat. Nr. 114) were titrated as previously reported. Briefly, serial 5-fold dilutions of each virus were made in quadruplicate wells in 96-well culture plates, in a total volume of 100 μL of growth medium (DMEM), for a total of 8 dilution steps. Freshly trypsinized cells (20,000 cells in 100 μL of growth medium containing 75 μg/mL DEAE-dextran) were added to each well, and the plates were incubated at 37°C in a humidified 5% CO2-95% air environment. After 48 h of incubation, the medium was removed and viral infection was quantified using a β-galactosidase (CPRG) assay (Roche). Twenty thousand TZM-bl cells/well were seeded in 96-well plates in complete DMEM supplemented with 30 μg/mL DEAE-dextran (Sigma-Aldrich). Three hundred times the 50% tissue culture infective dose (TCID50)/mL of each strain was pretreated for 1 h at 37°C with six serial dilutions ([…] to 3.2 nM) of each compound and then added to the cells, as previously described. Vehicle (0.1% dimethyl sulfoxide [DMSO])-treated cells served as a negative control. […] After 2 days, viral infection was quantified using a CPRG assay (Roche). The inhibitory curves were fitted by nonlinear regression, allowing for the calculation of the 50% inhibitory concentration (IC50) using the Prism software. To evaluate the cell toxicity of the compounds, the metabolic XTT [2,3-bis-(2-methoxy-4-nitro-5-sulfophenyl)-2H-tetrazolium-5-carboxanilide] test (Sigma-Aldrich) was performed according to the manufacturer’s instructions.

[2] = tested on: HIV-1 NL4.3 (CXCR4-tropic strain); test: Antiviral activity on TZM-bl cells infected with HIV-1 NL4.3 (CPRG assay); type: cell-based
Protocol: After 48 h of incubation, the medium was removed and viral infection was quantified using a β-galactosidase (CPRG) assay (Roche). Twenty thousand TZM-bl cells/well were seeded in 96-well plates in complete DMEM supplemented with 30 μg/mL DEAE-dextran (Sigma-Aldrich). […] Vehicle (0.1% dimethyl sulfoxide [DMSO])-treated cells served as a negative control. […] After 2 days, viral infection was quantified using a CPRG assay (Roche). […] To evaluate the cell toxicity of the compounds, the metabolic XTT [2,3-bis-(2-methoxy-4-nitro-5-sulfophenyl)-2H-tetrazolium-5-carboxanilide] test (Sigma-Aldrich) was performed according to the manufacturer’s instructions.

HIV-1 AD8 [3] = test: Inhibition of antiviral activity by fetal bovine serum (TZM-bl, AD8); type: cell-based; conditions: FBS 0% to 10%
Protocol: To evaluate the binding of compounds to plasma proteins also in a cell based assay, the infection with the HIV laboratory strain AD8 was performed in absence or in presence of different concentrations of Fetal Bovine Serum (FBS): 2%, 5% and 10%. The representative compound 2 was pre-incubated at different concentrations ranging from 10 μM to 3.2 nM with 300 TCID50 /mL of AD8 in DMEM supplemented with 50 μg/mL penicillin, 50 μg/mL streptomycin, 30 μg/mL DEAE-dextran and FBS at the concentration described above. Maraviroc was used as control. After an hour the mixture was added to 40.000 TZM-bl cells/well plated in a 96-well plate and after two days the infection was quantified using a CPRG assay (Roche) as previously described.

HIV-1 AD8 [4] = test: Inhibition of antiviral activity by purified bovine serum albumin (TZM-bl, AD8); type: cell-based
Protocol: To confirm the binding of compound 2 to serum albumin, infection was performed in presence of different concentrations of purified bovine serum albumin (BSA, Sigma Aldrich) starting from the concentration that is usually present in FBS serum (35 mg/mL, 1X) and increasing to a five-fold concentration (175 mg/mL) up to a ten-fold concentration (350 mg/mL). […] After one hour, the mixture was added to 40.000 TZM-bl cells/well plated in DMEM supplemented with 50 μg/mL penicillin, 50 μg/mL streptomycin, 30 μg/mL DEAE-dextran and 10% FBS in a 96-well plate. After two days the infection was evaluated through a CPRG assay.

[5] = Cytotoxicity on TZM-bl cells (XTT test); type: cell-based; conditions: human, read-out: Citotoxicity (TZM-bl cells) CC50
Protocol: as §1

HIV-1 NL 4.3 WT = test: Antiviral activity on human CD4+ T lymphocytes, NL4.3 WT; type: cell-based; conditions: Human immunodeficiency virus 1, read-out: NL 4.3 WT EC50
Protocol: (§2) The antiviral activity and cytotoxicity of compounds 2, 9e and 9f was tested also on freshly purified human CD4^+ T lymphocytes obtained from healthy blood donors (informed consent available) as described previously on HIV laboratory strain NL4.3 and AD8 [33, 34].

HIV-1 AD8 WT = test: Antiviral activity on human CD4+ T lymphocytes, AD8 WT; type: cell-based; conditions: Human immunodeficiency virus 1, read-out: AD8 WT EC50
Protocol: as §2

[6] = tested on: recombinant HIV-1 integrase Q148H, G140S; test: Antiviral activity on human CD4+ T lymphocytes, integrase mutant Q148H, G140S; type: cell-based; conditions: Human immunodeficiency virus 1, read-out: Q148H, G140S EC50
[7] = tested on: recombinant HIV-1 integrase Y143R; test: Antiviral activity on human CD4+ T lymphocytes, integrase mutant Y143R; type: cell-based; conditions: Human immunodeficiency virus 1, read-out: Y143R EC50
HSV-2 = HSV-2 plaque reduction assay on Vero cells; type: cell-based; conditions: Vero cells
Protocol: (§3) Clinical isolates of HSV-1 and HSV-2 were kindly provided by Prof. M. Pistello, University of Pisa, Italy. HSV-1 and HSV-2 strains were propagated and titrated by plaque assay on Vero cells. A HSV-2 strain with phenotypic resistance to acyclovir was generated by serial passage in the presence of increasing concentrations of acyclovir, as previously described.
(§4) The effect of the rhodanine derivatives on HSV infection was evaluated by plaque reduction assay. Vero cells were pre-plated 24 h in advance in 24-well plates at a density of […]. Increasing concentrations of compounds were mixed with HSV-2 (MOI 0.001 pfu/cell) or HSV-2 acyclovir resistant (MOI 0.001) or HSV-1 (MOI 0.0005) or and incubated for 1 hour at 37°C. The mixtures were subsequently added to the cells, which were then incubated at 37°C for 2 h. The virus inoculum was then removed and the cells washed and overlaid with a medium containing 1.2% methylcellulose (Sigma). After further incubation at 37°C for 24 h (HSV-2 and HSV-2 R Acy) or 48 h (HSV-1), cells were fixed and stained with 0.1% crystal violet in 20% ethanol and viral plaques counted. The effective concentration producing 50% reduction (EC50) and 90% reduction (EC90) in plaque formation was determined using Prism software by comparing drug-treated with wells treated with medium and solvent. The selectivity index (SI) was calculated by dividing the CC50 by the EC50 value.
(§5) All results are presented as the mean values from three independent experiments. The EC50 values for inhibition curves were calculated by regression analysis using the software GraphPad Prism (GraphPad Software, San Diego, California, U.S.A.) by fitting a variable slope-sigmoidal dose–response curve. Acyclovir was purchased from Sigma Aldrich (Milan, Italy).

[8] = Vero cell viability (MTS assay); type: cell-based; conditions: African green monkey
Protocol: African green monkey fibroblastoid kidney cells (Vero, ATCC CCL-81) were grown as monolayers in Eagle's minimal essential medium (MEM) (Gibco/BRL, Gaithersburg, MD) supplemented with 10% heat inactivated fetal calf serum (FCS) and 1% antibiotic-antimycotic solution (Zell Shield, Minerva Biolabs GmbH, Berlin, Germany).
Cell viability was measured using the MTS [3-(4,5-dimethylthiazol-2-yl)-5-(3-carboxymethoxyphenyl)-2-(4-sulfophenyl)-2H-tetrazolium] assay. Cell cultures were seeded in 96-well plates were incubated with different concentrations of compounds in triplicate under the same experimental conditions described for the antiviral assays. Cell viability was determined using the CellTiter 96 Proliferation Assay Kit (Promega, Madison, WI, USA) according to the manufacturer's instructions. Absorbances were measured using a Microplate Reader (Model 680, BIORAD) at 490 nm. The effect on cell viability at different concentrations of the compound was expressed as a percentage, by comparing absorbances of treated cells with those of cells incubated with culture medium and equal volumes of vehicle.

HSV-1 = HSV-1 plaque reduction assay on Vero cells; type: cell-based; conditions: Human alphaherpesvirus 1, Vero cells, read-out: HSV-1 EC50
Protocol: as §3, §4, §5

[9] = tested on: HSV-2 acyclovir resistant; test: HSV-2 acyclovir resistant plaque reduction assay on Vero cells; type: cell-based; conditions: Human alphaherpesvirus 2, Vero, read-out: HSV-2 acyclovir resistant EC50
Protocol: as §3
as §4, with “The virus inoculum was then removed and the cells washed and overlaid with a medium containing 1.2% methylcellulose (Sigma).” left out, “The effective concentration producing 50% reduction (EC50) and 90% reduction (EC90) in plaque formation was determined using Prism software by comparing drug-treated with wells treated with medium and solvent.” left out
as §5, with “Acyclovir was purchased from Sigma Aldrich (Milan, Italy).” left out

NL4.3 HIV strain = test: Antiviral activity in microbicide gel formulation, transwell experiment, TZM-bl cells; type: cell-based, HIV-1; conditions: Human immunodeficiency virus 1, gel at 50%
Protocol: All the semi-solid formulations were prepared adding at the pre-gel solution reported above hydroxyethyl cellulose (HEC) (1.8% w/v). In all samples, 0.2% v/v propionic acid was added to aqueous solution in order to preserve form bacteria and mold contamination. HEC was dispersed in the pre-gel solution at 25°C under magnetic stirring, overnight.
Antiviral activity of compound 2 on NL4.3 HIV strain was evaluated also in a gel formulation. To reproduce more physiological conditions, TZM-bl cells were seeded into transwells and the gel was applied onto the cell monolayer at 50% fixed concentration with serial drug dilutions as previously described. Briefly, 4x10^4 TZM-bl cells were plated into each transwell apical chamber of a 24-well plate (pore size 3μm and diameter 6,5 mm, Corning) containing medium in the bottom plate and cultured overnight. For efficacy testing, 60 TCID50 of virus was added to each apical well in the presence of 100 μL of compound 2 gel, tenofovir gel or blank gel at the final drug concentrations of 25μM, 10 μM and 5 μM. Inhibition of infection was determined as previously based on deviations from blank gel.

## CC(=O)Nc1ccc(O)cc1 [Paracetamol]
HSA
  Kd: 1280 ± 690 µM

## maraviroc [reference compound]
[1]; TZM-bl cells
  alteration of antiviral activity when pre-incubated with serum: did not show any alteration of antiviral activity
[1]; TZM-bl cells, pre-incubation in complete medium containing fetal bovine serum (FBS), read-out: AD8 EC50 a
  EC50: 0.0255 ± 0.003 µM
[1]; TZM-bl cells, pre-incubation with virus without serum, read-out: AD8 EC50
  EC50: 0.0367 ± 0.007 µM
[2]; TZM-bl cells, pre-incubation in complete medium containing fetal bovine serum (FBS), read-out: NL4-3 EC50 a
  EC50: > 20 µM
[2]; TZM-bl cells, pre-incubation with virus without serum, read-out: NL4-3 EC50
  EC50: > 20 µM
HIV-1 AD8 [3]
  effect of FBS concentration on antiviral activity: did not change
HIV-1 AD8 [4]
  influence of BSA on antiviral activity, any concentration of BSA: not influenced

## Cc1nnc(C(=O)NC(C)(C)c2nc(C(=O)NCc3ccc(F)cc3)c(O)c(=O)n2C)o1 [RAL, raltegravir, reference compound]
[1]; Human immunodeficiency virus 1, TZM-bl, read-out: AD8 EC50
  EC50: 0.0065 ± 0.001 µM
[1]; Human immunodeficiency virus 1, TZM-bl, read-out: AD8 EC50 a
  EC50: 0.0135 ± 0.002 µM
[1]; TZM-bl cells
  alteration of antiviral activity when pre-incubated with serum: did not show any alteration of antiviral activity
[2]; Human immunodeficiency virus 1, NL43, TZM-bl, read-out: NL4-3 EC50
  EC50: 0.021 ± 0.003 µM
[5]
  CC50: > 20 µM
HIV-1 NL 4.3 WT
  EC50: 0.003 ± 0.002 µM
HIV-1 AD8 WT
  EC50: 0.002 ± 0.003 µM
[6]
  EC50: 0.8 ± 0.012 µM
[7]
  EC50: 0.46 ± 0.01 µM

## Nc1nc2c(ncn2COCCO)c(=O)[nH]1 [ACV, Acyclovir, reference compound]
HSV-2; Human alphaherpesvirus 2, plaque reduction, compound pre-incubated with virus 1 h at 37°C, read-out: HSV-2 EC50
  EC50: 0.622 ± 0.0211 µM
HSV-2
  SI (CC50/EC50), HSV-2: 1177
[8]; Citotoxicity (Vero cells) CC50
  CC50: 732 ± 46.2 µM
[8]; Vero cell CC50 (HSV-1)
  CC50: 698 ± 72.5 µM
[8]; Vero cell CC50 (HSV-2 acyclovir resistant rows)
  CC50: 732 ± 46.2 µM
HSV-1
  EC50: 0.168 ± 0.0413 µM
[9]
  EC50: 31.9 ± 1.16 µM

## C[C@H](Cn1cnc2c(N)ncnc21)OCP(=O)(O)O [tenofovir, reference compound]
NL4.3 HIV strain
  EC50: 4.5 µM
